Measured values published in PMC9268448, “Synthesis of 4,5-Dihydro-1H-[1,2]dithiolo[3,4-c]quinoline-1-thione Derivatives and Their Application as Protein Kinase Inhibitors” (Molecules, 2022).

Key:
[1] = target: T1, NPM1-ALK (Homo sapiens, UniProt Q9UM73); test: Kinase inhibition ELISA, NPM1-ALK; type: biochemical; conditions: 10 μM test compound, 150 μM ATP
T1 construct: NPM1 (nucleophosmin, P06748) fusion partner
Procedure: (§1) Study of inhibitory activity. […] The enzymatic reaction was stopped with a buffer containing 20 mM HEPES (Sigma, H4034), pH 7.5, and 150 mM EDTA (Sigma, E5513). […] Incubation was carried out for 1 h at room temperature. […] After completion of each incubation step (60 min at room temperature (~20 °C) and continuous stirring), the plates were washed three times from unbound antibody molecules with a PBS solution with Tween-20 and 100 μL of substrate (3.3′,5.5′-tetramethylbenzidine (TMB) dihydrochloride, Sigma, T8768) prepared according to the manufacturer’s instructions. Before measuring the optical density, the reaction was stopped using 0.5 M Н2SO4. The optical density of the solution was determined at λ = 450 nm using a tablet spectrophotometer (TECAN Safire). The data obtained were processed and imported into the HTSCalc program.
(§2) The data were analyzed using GraphPad Prism software (v. 3.1).

[2] = target: ALK (Homo sapiens, UniProt Q9UM73); test: Kinase inhibition ELISA, ALK; type: biochemical; conditions: 10 μM test compound, 150 μM ATP
Procedure: (§3) Study of inhibitory activity. The kinase activity was determined by enzyme-linked immunosorbent assay (ELISA) in polypropylene plates (Costar, 3363) in reaction buffer (20 mM HEPES, pH 7.5, 15 mM MgCl2, 2 mM DTT, 0.2 mM Na3VO4, 0.005% Triton X-100) for 60 min at 30 °C with vigorous stirring. The final concentration of the reaction components: 0.05 μg mL^–1 of the corresponding kinase, 5 nM Histon H3 biotinylated substrate (1–21) (Anaspec, 61702), 150 μM ATP (Sigma, A6419), 10 μM test compound, 5% DMSO. The enzymatic reaction was stopped with a buffer containing 20 mM HEPES (Sigma, H4034), pH 7.5, and 150 mM EDTA (Sigma, E5513). Further, to detect the phosphorylated substrate, the reaction mixture was transferred to pre-prepared plates (Nunc, 468667) coated with neutravidin (1 ng per well; Pierce, 31000) and treated with bovine serum albumin (BSA) to block non-specific binding sites. Incubation was carried out for 1 h at room temperature. After washing the plates three times with phosphate buffer saline (PBS, pH 7.4) with Tween-20, they were incubated sequentially with anti-phospho-Histon H3 antibodies (0.3 ng μL^–1; Millipore, 04-746) and with specific antibodies conjugated with an enzyme-label (peroxidase) Anti-rabbit IgG, HRP-linked Antibody (titer 1/5000; Cell Signaling, 7074). After completion of each incubation step (60 min at room temperature (~20 °C) and continuous stirring), the plates were washed three times from unbound antibody molecules with a PBS solution with Tween-20 and 100 μL of substrate (3.3′,5.5′-tetramethylbenzidine (TMB) dihydrochloride, Sigma, T8768) prepared according to the manufacturer’s instructions. Before measuring the optical density, the reaction was stopped using 0.5 M Н2SO4. The optical density of the solution was determined at λ = 450 nm using a tablet spectrophotometer (TECAN Safire). The data obtained were processed and imported into the HTSCalc program.

[3] = target: EGFR[L858R][T790] (Homo sapiens, UniProt P00533, L858R/T790M); test: Kinase inhibition ELISA, EGFR[L858R][T790]; type: biochemical; conditions: 10 μM test compound, 150 μM ATP
Procedure: as §3

[4] = target: cRAF[Y340D][Y341D] (Homo sapiens, UniProt P04049, Y340D/Y341D); test: Kinase inhibition ELISA, cRAF[Y340D][Y341D]; type: biochemical; conditions: 10 μM test compound, 150 μM ATP
Procedure: as §1, §2

[5] = target: JAK2 (Homo sapiens, UniProt O60674); test: Kinase inhibition ELISA, JAK2; type: biochemical; conditions: 10 μM test compound, 150 μM ATP
Procedure: as §3

[6] = target: T2, JAK3 (Homo sapiens, UniProt P52333); test: Kinase inhibition ELISA, JAK3; type: biochemical; conditions: 10 μM test compound, 150 μM ATP
T2 sequence (P52333 1-1124): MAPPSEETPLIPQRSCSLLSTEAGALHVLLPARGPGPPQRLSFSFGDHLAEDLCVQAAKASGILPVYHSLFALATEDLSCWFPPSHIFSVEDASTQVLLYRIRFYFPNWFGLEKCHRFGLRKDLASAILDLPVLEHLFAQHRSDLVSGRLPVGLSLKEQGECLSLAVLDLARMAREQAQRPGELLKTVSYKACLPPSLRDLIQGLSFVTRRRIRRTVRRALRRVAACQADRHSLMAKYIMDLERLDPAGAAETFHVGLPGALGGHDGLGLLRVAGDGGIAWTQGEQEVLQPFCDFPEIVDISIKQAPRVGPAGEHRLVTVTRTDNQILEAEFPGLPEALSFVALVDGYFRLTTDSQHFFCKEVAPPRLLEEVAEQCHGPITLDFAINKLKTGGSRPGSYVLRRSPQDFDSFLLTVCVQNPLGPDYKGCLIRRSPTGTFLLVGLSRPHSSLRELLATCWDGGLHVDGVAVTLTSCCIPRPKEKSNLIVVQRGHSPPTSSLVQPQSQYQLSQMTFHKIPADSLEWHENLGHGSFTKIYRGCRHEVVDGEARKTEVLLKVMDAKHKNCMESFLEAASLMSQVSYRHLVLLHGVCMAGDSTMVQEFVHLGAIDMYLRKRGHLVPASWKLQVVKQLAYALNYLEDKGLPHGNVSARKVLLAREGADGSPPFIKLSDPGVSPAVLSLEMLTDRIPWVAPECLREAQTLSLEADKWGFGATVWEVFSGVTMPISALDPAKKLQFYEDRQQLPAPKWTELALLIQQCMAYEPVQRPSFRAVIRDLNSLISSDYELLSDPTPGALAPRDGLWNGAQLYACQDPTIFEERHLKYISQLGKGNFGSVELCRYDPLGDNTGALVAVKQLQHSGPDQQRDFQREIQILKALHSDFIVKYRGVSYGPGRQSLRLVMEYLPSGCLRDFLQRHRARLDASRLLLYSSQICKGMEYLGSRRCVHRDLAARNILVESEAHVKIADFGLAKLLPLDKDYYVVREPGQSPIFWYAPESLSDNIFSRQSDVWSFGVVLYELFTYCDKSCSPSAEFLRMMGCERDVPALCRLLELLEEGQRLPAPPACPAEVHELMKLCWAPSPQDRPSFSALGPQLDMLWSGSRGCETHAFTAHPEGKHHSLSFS
Procedure: as §3
For compounds 2a–c,q, the IC50 value (μmol L^–1) was calculated from ten concentration points (in triplicate dilution) obtained twice. The data were analyzed using GraphPad Prism software (v. 3.1).

[7] = Solubility in DMSO (noted during NMR); type: physicochemical; conditions: in words; NMR sample in DMSO
Procedure: The signal for the carbon atom of the imino group at 166.6 ppm was detected in the spectrum of the arylimino derivative 2q. In the mass spectra of compounds 2h, 2i–n, and 2q, peaks of protonated molecular ions, consistent with the structure of these compounds, were observed.

Sequence of JAK2 (O60674 whole entry): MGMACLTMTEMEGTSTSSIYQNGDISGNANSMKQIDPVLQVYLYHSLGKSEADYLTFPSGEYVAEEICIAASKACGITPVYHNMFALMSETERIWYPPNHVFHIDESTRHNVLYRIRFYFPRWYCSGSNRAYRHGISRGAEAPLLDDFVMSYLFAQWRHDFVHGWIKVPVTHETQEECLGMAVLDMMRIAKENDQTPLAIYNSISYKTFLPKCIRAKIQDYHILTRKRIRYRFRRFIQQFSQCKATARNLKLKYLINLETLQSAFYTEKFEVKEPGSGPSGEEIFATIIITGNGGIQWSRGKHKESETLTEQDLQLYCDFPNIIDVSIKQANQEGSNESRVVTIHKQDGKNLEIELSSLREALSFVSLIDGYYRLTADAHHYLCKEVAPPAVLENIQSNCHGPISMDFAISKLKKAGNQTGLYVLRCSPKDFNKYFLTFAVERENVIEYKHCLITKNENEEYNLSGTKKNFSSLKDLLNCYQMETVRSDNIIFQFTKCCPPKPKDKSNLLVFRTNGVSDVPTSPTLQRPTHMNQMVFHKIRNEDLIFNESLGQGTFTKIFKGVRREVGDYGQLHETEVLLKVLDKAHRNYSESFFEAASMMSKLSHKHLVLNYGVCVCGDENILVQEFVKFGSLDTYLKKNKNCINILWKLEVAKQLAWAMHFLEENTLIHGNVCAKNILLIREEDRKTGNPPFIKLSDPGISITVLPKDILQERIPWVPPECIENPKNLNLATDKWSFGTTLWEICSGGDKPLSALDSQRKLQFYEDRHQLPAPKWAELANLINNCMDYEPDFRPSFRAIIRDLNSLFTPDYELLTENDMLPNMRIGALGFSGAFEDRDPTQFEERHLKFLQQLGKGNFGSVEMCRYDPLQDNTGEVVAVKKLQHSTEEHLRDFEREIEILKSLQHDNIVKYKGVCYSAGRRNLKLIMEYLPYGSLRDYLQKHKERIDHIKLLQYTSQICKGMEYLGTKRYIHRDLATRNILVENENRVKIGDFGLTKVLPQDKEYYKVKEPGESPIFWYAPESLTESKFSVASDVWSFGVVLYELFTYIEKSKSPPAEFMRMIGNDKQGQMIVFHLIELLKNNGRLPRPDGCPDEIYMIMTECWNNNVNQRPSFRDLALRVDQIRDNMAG
Sequence of ALK (Q9UM73 19-1620): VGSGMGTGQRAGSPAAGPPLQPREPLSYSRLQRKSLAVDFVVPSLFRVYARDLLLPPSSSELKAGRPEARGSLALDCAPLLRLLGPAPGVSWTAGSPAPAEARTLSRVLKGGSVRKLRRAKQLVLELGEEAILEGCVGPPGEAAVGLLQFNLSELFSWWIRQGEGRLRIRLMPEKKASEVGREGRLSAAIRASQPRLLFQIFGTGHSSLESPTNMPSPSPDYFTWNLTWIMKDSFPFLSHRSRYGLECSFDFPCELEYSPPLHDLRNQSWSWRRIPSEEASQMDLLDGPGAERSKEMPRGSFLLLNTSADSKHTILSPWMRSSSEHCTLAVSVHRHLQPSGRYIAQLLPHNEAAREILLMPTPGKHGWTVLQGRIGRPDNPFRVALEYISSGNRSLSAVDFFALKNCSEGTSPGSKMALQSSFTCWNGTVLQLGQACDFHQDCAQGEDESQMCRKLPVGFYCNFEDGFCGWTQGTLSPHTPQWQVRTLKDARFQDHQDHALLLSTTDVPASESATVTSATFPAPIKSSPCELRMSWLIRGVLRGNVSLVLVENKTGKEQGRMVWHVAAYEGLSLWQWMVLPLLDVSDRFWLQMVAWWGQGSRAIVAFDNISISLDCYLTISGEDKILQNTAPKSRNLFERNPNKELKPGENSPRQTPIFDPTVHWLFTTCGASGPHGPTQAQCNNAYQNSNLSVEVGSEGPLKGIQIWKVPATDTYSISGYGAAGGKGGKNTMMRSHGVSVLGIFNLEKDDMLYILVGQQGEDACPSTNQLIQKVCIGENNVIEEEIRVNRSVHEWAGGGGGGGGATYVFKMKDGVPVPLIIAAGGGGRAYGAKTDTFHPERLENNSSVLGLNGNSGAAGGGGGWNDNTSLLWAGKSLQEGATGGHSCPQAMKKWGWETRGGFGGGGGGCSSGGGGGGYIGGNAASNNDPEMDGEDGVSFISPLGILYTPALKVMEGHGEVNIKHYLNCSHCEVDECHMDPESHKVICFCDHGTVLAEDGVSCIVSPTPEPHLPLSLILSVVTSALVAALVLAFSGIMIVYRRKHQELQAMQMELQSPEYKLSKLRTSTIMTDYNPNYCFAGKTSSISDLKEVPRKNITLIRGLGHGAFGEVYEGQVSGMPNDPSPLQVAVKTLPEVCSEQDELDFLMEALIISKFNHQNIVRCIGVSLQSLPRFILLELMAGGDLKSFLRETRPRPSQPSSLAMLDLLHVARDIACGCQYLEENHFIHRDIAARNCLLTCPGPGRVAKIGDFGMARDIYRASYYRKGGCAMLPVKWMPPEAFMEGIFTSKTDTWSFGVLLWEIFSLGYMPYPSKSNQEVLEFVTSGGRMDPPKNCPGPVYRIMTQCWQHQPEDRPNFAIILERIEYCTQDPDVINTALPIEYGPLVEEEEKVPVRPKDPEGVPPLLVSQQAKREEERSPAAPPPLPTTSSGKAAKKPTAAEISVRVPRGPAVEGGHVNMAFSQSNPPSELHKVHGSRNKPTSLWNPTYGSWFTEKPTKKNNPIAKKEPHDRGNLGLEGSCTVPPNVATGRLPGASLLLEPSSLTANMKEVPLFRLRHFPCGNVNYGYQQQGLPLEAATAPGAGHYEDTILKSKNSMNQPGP
Sequence of EGFR[L858R][T790] (P00533 669-1210 T790M/L858R limits assumed): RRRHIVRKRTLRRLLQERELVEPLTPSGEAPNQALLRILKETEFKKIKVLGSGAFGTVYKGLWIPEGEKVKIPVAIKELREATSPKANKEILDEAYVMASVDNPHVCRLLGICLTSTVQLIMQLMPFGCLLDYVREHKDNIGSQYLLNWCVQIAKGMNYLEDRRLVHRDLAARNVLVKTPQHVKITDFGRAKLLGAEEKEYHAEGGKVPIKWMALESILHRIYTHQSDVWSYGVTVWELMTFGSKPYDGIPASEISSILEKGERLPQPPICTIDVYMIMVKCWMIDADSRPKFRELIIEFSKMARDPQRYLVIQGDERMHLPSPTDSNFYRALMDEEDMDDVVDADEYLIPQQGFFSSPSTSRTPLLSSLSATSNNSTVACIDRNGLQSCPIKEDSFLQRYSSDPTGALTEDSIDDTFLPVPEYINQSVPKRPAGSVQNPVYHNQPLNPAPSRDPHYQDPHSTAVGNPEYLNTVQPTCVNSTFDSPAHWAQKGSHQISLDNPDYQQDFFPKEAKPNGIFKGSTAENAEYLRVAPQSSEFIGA
T1 sequence (Q9UM73 whole entry, looked up, the tested form may be a part): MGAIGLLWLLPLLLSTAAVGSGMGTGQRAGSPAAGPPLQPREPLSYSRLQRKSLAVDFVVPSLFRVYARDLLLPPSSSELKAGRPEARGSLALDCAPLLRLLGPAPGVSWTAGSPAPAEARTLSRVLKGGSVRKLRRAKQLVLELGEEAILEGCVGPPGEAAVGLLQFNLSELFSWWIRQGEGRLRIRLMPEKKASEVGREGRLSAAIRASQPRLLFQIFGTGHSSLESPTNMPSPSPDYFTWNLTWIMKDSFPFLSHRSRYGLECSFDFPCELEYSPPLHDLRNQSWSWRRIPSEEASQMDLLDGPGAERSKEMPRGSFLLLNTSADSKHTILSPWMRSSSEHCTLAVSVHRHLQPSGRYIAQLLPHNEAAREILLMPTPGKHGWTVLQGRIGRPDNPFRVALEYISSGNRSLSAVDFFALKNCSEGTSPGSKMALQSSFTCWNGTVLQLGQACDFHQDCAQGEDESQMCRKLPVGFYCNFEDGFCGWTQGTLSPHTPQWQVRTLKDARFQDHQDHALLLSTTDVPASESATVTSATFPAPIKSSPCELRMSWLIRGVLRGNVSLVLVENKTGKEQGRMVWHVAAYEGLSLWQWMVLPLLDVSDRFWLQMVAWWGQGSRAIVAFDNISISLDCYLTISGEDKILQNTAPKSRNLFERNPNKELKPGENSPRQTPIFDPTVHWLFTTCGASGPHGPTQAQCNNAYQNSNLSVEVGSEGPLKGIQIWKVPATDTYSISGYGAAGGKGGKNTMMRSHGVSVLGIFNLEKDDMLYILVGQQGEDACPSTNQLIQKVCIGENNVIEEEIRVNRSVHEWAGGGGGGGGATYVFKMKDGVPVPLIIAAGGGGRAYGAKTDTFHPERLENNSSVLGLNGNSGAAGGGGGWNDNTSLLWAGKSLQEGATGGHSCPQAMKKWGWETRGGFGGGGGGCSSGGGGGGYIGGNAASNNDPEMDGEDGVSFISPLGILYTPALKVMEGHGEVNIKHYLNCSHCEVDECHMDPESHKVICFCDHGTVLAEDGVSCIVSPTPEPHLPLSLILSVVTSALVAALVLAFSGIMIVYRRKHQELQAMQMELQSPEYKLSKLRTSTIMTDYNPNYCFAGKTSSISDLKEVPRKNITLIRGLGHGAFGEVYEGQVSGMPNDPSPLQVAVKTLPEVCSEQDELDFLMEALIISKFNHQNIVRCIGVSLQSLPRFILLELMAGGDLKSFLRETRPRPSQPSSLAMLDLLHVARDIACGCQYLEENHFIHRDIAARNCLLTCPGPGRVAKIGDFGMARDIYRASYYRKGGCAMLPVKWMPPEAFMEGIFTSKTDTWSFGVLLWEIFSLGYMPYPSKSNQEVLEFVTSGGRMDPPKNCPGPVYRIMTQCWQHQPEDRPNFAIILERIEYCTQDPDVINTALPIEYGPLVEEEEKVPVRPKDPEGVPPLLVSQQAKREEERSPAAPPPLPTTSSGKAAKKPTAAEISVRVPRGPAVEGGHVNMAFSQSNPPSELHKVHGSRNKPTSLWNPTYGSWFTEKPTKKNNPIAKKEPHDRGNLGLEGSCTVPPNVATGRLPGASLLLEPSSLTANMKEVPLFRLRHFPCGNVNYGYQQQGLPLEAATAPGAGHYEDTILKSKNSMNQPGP

CC1(C)c2ssc(=S)c2-c2cc3c(c4c2N1C(=O)C4=O)OCCO3 [2n, 8,8-Dimethyl-11-thioxo-2,3,8,11-tetrahydro[1,4]dioxino[2,3-g][1,2]dithiolo[3,4-c]pyrrolo[3,2,1-ij]quinoline-5,6-dione]
inhibition at 10 µM [1]: 24% | inhibition at 10 µM [2]: 19% | inhibition at 10 µM [3]: 5% | inhibition at 10 µM [4]: 13% | inhibition at 10 µM [5]: 47% | inhibition at 10 µM [6]: 52% | solubility in DMSO [7]: low solubility in DMSO | melting point: > 260 °C
